Assay results published in patent publication EP4813463A2, “TYK2 INHIBITORS AND COMPOSITIONS AND METHODS THEREOF” (Lynk Pharmaceuticals Co. Ltd., priority 2023, dated 2024).

Biological target: T1, TYK2-JH2 domain (Homo sapiens, UniProt P29597)
T1 construct: JAK1-JH2 domain or TYK2-JH2 domain enzyme in assay buffer
Assay: Binding activity test for JH2 domain of TYK2 (Tb-antibody/tracer FRET)
Settings: JH2 domain enzyme; 60 min at 25°C, then 4°C overnight; read-out: TYK2 JH2 Binding IC50
Experimental: Binding Activity test for JH2 domain of JAK1 and TYK2 […] Add 8μL/well in echo source plate, echo will add 75nL/well with 3-fold serial dilution for 11 points in assay plate. 75nL DMSO for high control and low control. […] For low control, add 5μL/well assay buffer. And then spin down at 1000rpm and centrifuge for 30 seconds. After enzyme system prepared, add 5μL of Tb-antibody solution into each well of assay plate. Spin down at 1000 rpm and centrifuge for 30sec. After Tb-antibody added, also add 5μL of tracer into the assay plate. Spin down at 1000rpm and centrifuge for 30sec. Incubate for […] at 25°C firstly and then continue to incubate the plate at 4°C overnight. Read by envision in FRET mode. The Luminescence value was recorded by a multi-label reader Envision (PerkinElmer). […] Table 2. IC50 on JH2 domain activity (nM)

T1 sequence (P29597 589-875 limits assumed): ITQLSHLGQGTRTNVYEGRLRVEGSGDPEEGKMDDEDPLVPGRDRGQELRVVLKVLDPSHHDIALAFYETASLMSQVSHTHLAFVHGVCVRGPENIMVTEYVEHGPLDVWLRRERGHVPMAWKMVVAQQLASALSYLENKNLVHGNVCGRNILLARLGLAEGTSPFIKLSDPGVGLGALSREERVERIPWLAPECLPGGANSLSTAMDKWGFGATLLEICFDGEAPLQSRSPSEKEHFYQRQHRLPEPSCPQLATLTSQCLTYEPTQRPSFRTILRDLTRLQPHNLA

| IC50 [nM] | Structure (SMILES) |
| --- | --- |
| 0.119 | COC(=O)c1cnc(NC(=O)C2CC2)cc1Nc1nn(C)c2ccc(C(OC)C(C)(F)F)c(OC)c12 (single isomer, unassigned) [Example 115A, Methyl (S*)-6-(cyclopropanecarboxamido)-4-((5-(2,2-difluoro-1-methoxypropyl)-4-methoxy-1-methyl-1H-indazol-3-yl)amino)nicotinate] |
| 0.095 | [2H]C([2H])([2H])OC(c1ccc2c(c(Nc3cc(NC(=O)C4CC4)ncc3C(=O)OC)nn2CCOC)c1OC)C(F)(F)F (single isomer, unassigned) [Example 157A, Methyl (S*)-6-(cyclopropanecarboxamido)-4-((4-methoxy-1-(2-methoxyethyl)-5-(2,2,2-trifluoro-1-methoxyethyl)-1H-indazol-3-yl)amino)nicotinate] |
| 1.79 | COC(=O)c1cnc(NC(=O)C2CC2)cc1Nc1cnn2ccc(C3CCCO3)c(OC)c12 (stereo not drawn) [Example 99, Methyl 6-(cyclopropanecarboxamido)-4-((4-methoxy-5-(tetrahydrofuran-2-yl)pyrazolo[1,5-a]pyridin-3-yl)amino)nicotinate] |
| > 298 | COC(=O)c1nnc(NC(=O)C2CC2)cc1Nc1nn(C)c2ccc(C(OC)C(F)(F)F)c(OC)c12 (stereo not drawn) [Example 101, Methyl 6-(cyclopropanecarboxamido)-4-((4-methoxy-1-methyl-5-(2,2,2-trifluoro-1-methoxyethyl)-1H-indazol-3-yl)amino)pyridazine-3-carboxylate] |
| 5.84 | COC(=O)c1cnc(NC(=O)C2CC2)cc1Nc1ncn2ccc(C)c(OC)c12 [Example 103, Methyl 6-(cyclopropanecarboxamido)-4-((8-methoxy-7-methylimidazo[1,5-a]pyridin-1-yl)amino)nicotinate] |
| 13.7 | COC(=O)c1cnc(NC(=O)C2CC2)cc1Nc1nn(COCC[Si](C)(C)C)c2ccc(C(OC)C(F)(F)F)c(OC)c12 (stereo not drawn) [Example 104, Methyl 6-(cyclopropanecarboxamido)-4-((4-methoxy-5-(2,2,2-trifluoro-1-methoxyethyl)-1-((2-(trimethylsilyl)ethoxy)methyl)-1H-indazol-3-yl)amino)nicotinate] |
| 0.836 | COC(=O)c1cnc(NC(=O)C2CC2)cc1Nc1nccc2c1N(C)[C@@H](C)c1nn(C)nc1-2 [Example 109, Methyl (S)-6-(cyclopropanecarboxamido)-4-((2,4,5-trimethyl-4,5-dihydro-2H-[1,2,3]triazolo[4,5-c][1,7]naphthyridin-6-yl)amino)nicotinate] |
| 2.47 | COC(=O)c1cnc(NC(=O)C2CC2)cc1Nc1ncn2ccc(C(OC)C(F)(F)F)c(OC)c12 (stereo not drawn) [Example 110, Methyl 6-(cyclopropanecarboxamido)-4-((8-methoxy-7-(2,2,2-trifluoro-1-methoxyethyl)imidazo[1,5-a]pyridin-1-yl)amino)nicotinate] |
| 0.943 | COC(=O)c1cnc(NC(=O)C2CC2)cc1Nc1nn(C)c2ccc(C(OC)C(C)C)c(OC)c12 (stereo not drawn) [Example 118, Methyl 6-(cyclopropanecarboxamido)-4-((4-methoxy-5-(1-methoxy-2-methylpropyl)-1-methyl-1H-indazol-3-yl)amino)nicotinate] |
| 0.308 | COC(=O)c1cnc(NC(=O)C2CC2)cc1Nc1nn(C2CC2)c2ccc(C(OC)C(F)(F)F)c(OC)c12 (stereo not drawn) [Example 119, Methyl 6-(cyclopropanecarboxamido)-4-((1-cyclopropyl-4-methoxy-5-(2,2,2-trifluoro-1-methoxyethyl)-1H-indazol-3-yl)amino)nicotinate] |
| 0.405 | CCC(OC)c1ccc2c(c(Nc3cc(NC(=O)C4CC4)ncc3C(=O)OC)nn2C)c1OC (stereo not drawn) [Example 121, Methyl 6-(cyclopropanecarboxamido)-4-((4-methoxy-5-(1-methoxypropyl)-1-methyl-1H-indazol-3-yl)amino)nicotinate] |
| 90.3 | COC(=O)c1cnc(NC(=O)C2CC2)cc1Nc1c2c(OC)c(C(C)C(F)(F)F)ccc2nn1C (stereo not drawn) [Example 124, Methyl 6-(cyclopropanecarboxamido)-4-((4-methoxy-2-methyl-5-(1,1,1-trifluoropropan-2-yl)-2H-indazol-3-yl)amino)nicotinate] |
| 1.79 | COC(=O)c1cnc(NC(=O)C2CC2)cc1Nc1nn(C)c2ccc(C#N)c(OC)c12 [Example 126, Methyl 4-((5-cyano-4-methoxy-1-methyl-1H-indazol-3-yl)amino)-6-(cyclopropanecarboxamido)nicotinate] |
| 12.7 | COC(=O)c1cnc(NC(=O)C2CC2)cc1Nc1ccn2ncc(C(OC)C(F)(F)F)c2c1OC (stereo not drawn) [Example 131, Methyl 6-(cyclopropanecarboxamido)-4-((4-methoxy-3-(2,2,2-trifluoro-1-methoxyethyl)pyrazolo[1,5-a]pyridin-5-yl)amino)nicotinate] |
| 1.52 | COC(=O)c1cnc(NC(=O)C2CC2)cc1Nc1nn(CC#N)c2ccc(C(OC)C(F)(F)F)c(OC)c12 (stereo not drawn) [Example 134, Methyl 4-((1-(cyanomethyl)-4-methoxy-5-(2,2,2-trifluoro-1-methoxyethyl)-1H-indazol-3-yl)amino)-6-(cyclopropanecarboxamido)nicotinate] |
| 1.22 | COC(=O)c1cnc(NC(=O)C2CC2)cc1Nc1nn(C)c2cnc(C(OC)C(F)(F)F)c(OC)c12 (stereo not drawn) [Example 138, Methyl 6-(cyclopropanecarbonylamino)-4-[[4-methoxy-1-methyl-5-(2,2,2-trifluoro-1-methoxy-ethyl)pyrazolo[3,4-c]pyridin-3-yl]amino]pyridine-3-carboxylate] |
| 34.7 | CCC(O)c1cnc(NC(=O)C2CC2)cc1Nc1nn(C)c2ccc([C@H](OC)C(F)(F)F)c(OC)c12 (stereo partly drawn) [Example 143, N-(5-(1-hydroxypropyl)-4-((4-methoxy-1-methyl-5-((S)-2,2,2-trifluoro-1-methoxyethyl)-1H-indazol-3-yl)amino)pyridin-2-yl)cyclopropanecarboxamide] |
| 42.1 | CCC(F)c1cnc(NC(=O)C2CC2)cc1Nc1nn(C)c2ccc([C@H](OC)C(F)(F)F)c(OC)c12 (stereo partly drawn) [Example 144, N-(5-(1-fluoropropyl)-4-((4-methoxy-1-methyl-5-((S)-2,2,2-trifluoro-1-methoxyethyl)-1H-indazol-3-yl)amino)pyridin-2-yl)cyclopropanecarboxamide] |
| 9.8 | COC(=O)c1cnc(NC(=O)C2CC2)cc1Nc1nn(C)c2cccc(OC)c12 [Example 146, Methyl 6-(cyclopropanecarboxamido)-4-((4-methoxy-1-methyl-1H-indazol-3-yl)amino)nicotinate] |
| 0.747 | COC(=O)c1cnc(NC(=O)C2CC2)cc1Nc1nn(C)c2ccc(C(OC)C(F)(F)F)c(O)c12 (stereo not drawn) [Example 149, Methyl 6-(cyclopropanecarboxamido)-4-((4-hydroxy-1-methyl-5-(2,2,2-trifluoro-1-methoxyethyl)-1H-indazol-3-yl)amino)nicotinate] |
| 0.891 | [2H]C([2H])([2H])CC(=O)c1cnc(NC(=O)C2CC2)cc1Nc1ncc2cnn(CC(C)(F)F)c2c1OC [Example 155, N-(4-((1-(2,2-difluoropropyl)-7-methoxy-1H-pyrazolo[4,3-c]pyridin-6-yl)amino)-5-(propanoyl-3,3,3-d3)pyridin-2-yl)cyclopropanecarboxamide] |
| 0.074 | COC(=O)c1cnc(NC(=O)C2CC2)cc1Nc1nn(C)c2ccc([C@H](OCOP(=O)(O)O)C(F)(F)F)c(OC)c12 [Example 170, Sodium (S)-(1-(3-((2-(cyclopropanecarboxamido)-5-(methoxycarbonyl)pyridin-4-yl)amino)-4-methoxy-1-methyl-1H-indazol-5-yl)-2,2,2-trifluoroethoxy)methyl phosphate] |

| Structure (SMILES) | IC50 [nM] |
| --- | --- |
| [2H]C([2H])([2H])NC(=O)c1cnc(NC(=O)C2CC2)cc1Nc1nn(CC)c2ccc(C(O)C(F)(F)F)c(OC)c12 (single isomer, unassigned) [Example 71B, (R*)-6-(cyclopropanecarboxamido)-4-((1-ethyl-4-methoxy-5-(2,2,2-trifluoro-1-hydroxyethyl)-1H-indazol-3-yl)amino)-N-(methyl-d3)nicotinamide] | 0.25 |

Test system: Ba/F3-FL-TYK2-P760L cells
Assay: Anti-proliferative assay in engineered Ba/F3 cells (Cell-Titer Glo, 72 h)
Assay type: cell-based
Settings: 72 h compound treatment, concentration that causes 50% growth inhibition, read-out: Baf3-FL-T2P760L
Experimental: Dimerization domain of Tel protein fused with JAK kinase domain was permanently transduced into Ba/F3 cells, whose proliferation is dependent on JAK activity in the absence of IL-3 induction. These engineered Ba/F3-FL-TYK2-P760L cells were used to monitor JAK inhibitory activities of the compounds in the cellular. Ba/F3 cells were cultured in RPMI-1640 (Corning) containing 10% fetal bovine serum. Cells were seeded at 2000/well of white flat bottom 96-well plates. The well containing medium only was used as background control. After 24h growth, cells were treated with compounds. The test compounds were dissolved in DMSO to a stock concentration of 20 mM. 3-fold serially diluted compounds for 9 concentrations with top concentration of 20 µM was added into the each well. The final DMSO concentration was 0.1%. The cells continued to grow at 37°C in 5% CO2 for 72 h after compound treatment. The viability was measured by cellular ATP determination using the Cell-Titer Glo luciferase reagent (Promega). The Luminescence value was recorded by a multi-label reader Envision (PerkinElmer). Inhibition Rate was calculated relative to vehicle (DMSO) treated control wells using following formula: % Inhibition = 100−(RLU_compound−RLU_blank)/(RLU_control−RLU_blank) × 100% [formula] wherein • RLU_compound = the relative light unit of cells treated with test compounds • RLU_blank = the relative light unit of medium with DMSO only • RLU_control = the relative light unit of cells treated with DMSO only
Table 4. Ba/F3-FL-TYK2-P760L Cells IC50 Values of Exemplary Compounds

| Structure (SMILES) | IC50 [nM] |
| --- | --- |
| [2H]C([2H])([2H])NC(=O)c1cnc(NC(=O)C2CC2)cc1Nc1nn(CC)c2ccc(C(O)C(F)(F)F)c(OC)c12 (single isomer, unassigned) [Example 71B, (R*)-6-(cyclopropanecarboxamido)-4-((1-ethyl-4-methoxy-5-(2,2,2-trifluoro-1-hydroxyethyl)-1H-indazol-3-yl)amino)-N-(methyl-d3)nicotinamide] | 17.9 |
| [2H]C([2H])([2H])OC(c1ccc2c(c(Nc3cc(NC(=O)C4CC4)ncc3C(=O)OC)nn2CCOC)c1OC)C(F)(F)F (single isomer, unassigned) [Example 157A, Methyl (S*)-6-(cyclopropanecarboxamido)-4-((4-methoxy-1-(2-methoxyethyl)-5-(2,2,2-trifluoro-1-methoxyethyl)-1H-indazol-3-yl)amino)nicotinate] | 2.51 |

Same assay, conditions: Mus musculus, BaF3, 72 h, 72 h compound treatment, concentration that causes 50% growth inhibition, read-out: Baf3-FL-T2P760L

| IC50 [nM] | Structure (SMILES) |
| --- | --- |
| 9.83 | COC(=O)c1cnc(NC(=O)C2CC2)cc1Nc1nn(C)c2ccc(C(OC)C(C)(F)F)c(OC)c12 (single isomer, unassigned) [Example 115A, Methyl (S*)-6-(cyclopropanecarboxamido)-4-((5-(2,2-difluoro-1-methoxypropyl)-4-methoxy-1-methyl-1H-indazol-3-yl)amino)nicotinate] |
| 14.5 | CCC(F)(F)c1cnc(NC(=O)C2CC2)cc1Nc1nc2ccc(N3CC(OC)C3)cn2n1 [Example 183, N-(5-(1,1-Difluoropropyl)-4-((6-(3-methoxyazetidin-1-yl)-[1,2,4]triazolo[1,5-a]pyridin-2-yl)amino)pyridin-2-yl)cyclopropanecarboxamide] |
